Experimental data as given in PMC11819963, “In Vitro CO-Releasing and Antioxidant Properties of Sulfonamide-Based CAI-CORMs in a H2O2-Stimulated Human Achilles Tendon-Derived Cell Model” (Molecules, 2025).

How the values were obtained:
[1] = target: hCA II (Homo sapiens, UniProt P00918); test: stopped-flow CO2 hydrase assay, hCA II; assay type: biochemical; details: mean from three assays, errors ±5–10%
Description: (§1) The CO2 concentrations ranged from 1.7 to 17 mM for the determination of the kinetic parameters and inhibition constants. […] The uncatalysed rates were determined in the same manner and subtracted from the total observed rates. […] The inhibition constants were obtained by non-linear least-squares methods using PRISM 3 and the Cheng–Prusoff equation and represent the mean from at least three different determinations.

[2] = target: hCA I (Homo sapiens, UniProt P00915); details: stopped-flow CO2 hydrase assay; cells marked a; cited from earlier work
Sequence of hCA I (P00915 whole entry): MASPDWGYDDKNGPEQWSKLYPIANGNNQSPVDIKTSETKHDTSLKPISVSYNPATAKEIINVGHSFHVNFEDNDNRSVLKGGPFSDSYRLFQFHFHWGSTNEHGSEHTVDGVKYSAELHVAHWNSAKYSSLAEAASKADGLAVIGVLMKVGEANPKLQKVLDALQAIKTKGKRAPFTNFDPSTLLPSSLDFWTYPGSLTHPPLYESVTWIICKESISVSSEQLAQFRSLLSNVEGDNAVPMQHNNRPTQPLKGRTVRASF

[3] = test system: H2O2-stimulated human Achilles tendon-derived tenocytes; test: collagen type I secretion (ELISA); assay type: cell-based; details: 48 h, after H2O2 100 µM for 3 h, compared to untreated cells, normalised on MTT
Description: (§2) Compound A and acetazolamide were administered as reference compounds.
Amounts of collagen type I secreted in supernatants harvested from 96 well plates were detected by a human collagen type 1 ELISA kit (Cosmo Bio Co., Ltd., Tokyo, Japan; cat. no. ACE-EC1-E105-EX). Samples were pipetted into suitably coated wells as described elsewhere. Each ELISA test was performed three times in duplicates per experimental condition (n = 6). The concentration of collagen type I (µg/mL) was calculated using a standard curve generated with a specific standard provided by the manufacturer by means of the Prism 5.0 software (GraphPad, San Diego, CA, USA).

[4] = target: hCA IX (Homo sapiens, UniProt Q16790); test: stopped-flow CO2 hydrase assay, hCA IX; assay type: biochemical; details: mean from three assays, errors ±5–10%
Description: as §1

[5] = test system: Human Achilles tendon-derived tenocytes; test: cell metabolic activity (MTT test), basal conditions; assay type: cell-based; details: 6.25–50 µM; for cell metabolic activity (MTT): vs untreated control
Description: (§3) Human Achilles tendon-derived tenocytes (#TEN-F) were purchased by ZenBio Inc. (Durham, NC, USA) and maintained in complete alpha-MEM (EuroClone, Milan, Italy) supplemented with 10% of heat-inactivated FBS (Gibco, Thermo Fisher Scientific, Waltham, MA, USA) and 1% penicillin/streptomycin (EuroClone, Milan, Italy) at 37 °C and 5% CO2 and used from passage 3 up to passage 6.
(§4) Cells were seeded in 96-well plates (0.5 × 10^4/well) or 6-well plates (0.5 × 10^5/well) (ThermoFisher Scientific, Waltham, MA, USA) and left to adhere overnight at 37 °C and 5% CO2. For cell metabolic activity experiments (MTT test), tenocytes were treated with increasing concentrations of compounds (range 0–50 µM) for 24 and 48 h. Compounds were dissolved in DMSO to obtain a 200 mM stock solution, and they were afterwards diluted in complete alpha-MEM (DMSO final concentration = 0.1%) for further analyses. In a second set of MTT experiments, tenocytes were pre-incubated with 100 µM H2O2 for 3 h. After that, the pre-incubation medium was discarded and replaced with a fresh one containing the proper compound at increasing concentrations for 24 and 48 h. At the established time points, samples were processed for further analyses.
(§5) Tenocytes were seeded in 96 well tissue culture-treated plates (Falcon®, Corning Incorporated, Brooklyn, NY, USA) at 0.5 × 10^4 cells/well. Untreated cells (0 µM) were set as control (100% of cell metabolic activity). At the established time points, the exposure media were replaced by fresh medium containing 3-(4,5-dimethylthiazol-2-yl)-2,5-diphenyltetrazolium bromide (MTT) 0.5 mg/mL (Merck, Darmstadt, Germany) and processed as elsewhere reported [18]. The optical density in each well was measured using a spectrophotometer (Thermo Fisher Scientific, Waltham, MA, USA) at a wavelength of 540 nm. Each experiment was performed three times in triplicates per experimental condition (n = 9).

[6] = test system: H2O2-stimulated human Achilles tendon-derived tenocytes; test: cell metabolic activity (MTT test), pre-incubation with H2O2; assay type: cell-based; details: 6.25–50 µM, after H2O2 100 µM for 3 h
Description: as §3, §4, §5

[7] = test system: reduced myoglobin (deoxy-Mb); test: myoglobin carbonylation assay (CO release); parameters: species or system horse; details: for CO-release profile (MbCO formed over time): 1:1 and 1:6 CORM:Mb, up to 300 min, comparison within series; for MbCO formed: after 210 min of incubation, 1:1 CORM–Mb ratio (about 20 μM CORM); for CO units released: after 300 min of incubation with Mb, 37 °C
Description: To determine the CO-releasing properties of the designed compounds, the myoglobin carbonylation assay was employed, with some deviations from the standard protocol, as previously reported. The analysed compounds were incubated with reduced myoglobin (deoxy-Mb), and spectra were recorded every 30 min up to 300 min. The release of CO was assessed by evaluating the formation of carbonylated myoglobin (Mb-CO) over time (Figure 3). […] The releasing properties of the compounds were also expressed as CO units released after 300 min of incubation with Mb, as reported in Figure S1 (Supplementary Information File).
All the employed reagents were of analytical grade and acquired from Merck (Milan, Italy). Gaseous CO was obtained from Rivoira (Milan, Italy). A Shimadzu UV1900 UV-Vis Spectrophotometer from 275 to 700 nm at the scanning rate of 200 nm/min was used to record UV-Vis absorption spectra in a disposable plastic cuvette (path length 0.44 cm). The second derivative spectra were generated with the Origin Lab software, and the Savitzky–Golay method was applied using 25 data points for the differentiation process. Neither an increase nor a decrease in the number of points caused changes in the wavelength or in the bandwidth. Lyophilised horse heart Mb was dissolved in phosphate-buffered saline flushed with N2 (PBS, 0.01 M, pH 7.4 to a 20–22 μM final concentration). Two millilitres of this freshly prepared stock solution were placed in a cuvette to record the UV-Vis absorption spectrum of met-Mb. Next, the solutions were divided into two halves: 10 μL of sodium dithionite (30 mg/mL) was added to the first half (reference), and the UV–Vis spectrum of deoxy-Mb was registered. After that, the solution was flushed with CO gas, and the Mb-CO spectrum was acquired. Sodium dithionite was added to the second half (sample), and a spectrum was recorded. Afterwards, a CORM DMSO solution was added to a final CORM concentration of 1.67 μM, 3.33 μM or 20 μM and gently mixed. The solution was covered with 300 μL of light mineral oil to avoid CO escaping and oxygenation of Mb, and the absorption spectrum was recorded at t = 0. Spectra were acquired every 30 min for 300 min, keeping the sample at 37 °C. When necessary, a freshly prepared sodium dithionite solution was added. After 300 min, the total Mb concentration at the end of the assay was determined by flushing the sample with CO gas. Mb-CO concentration at each time point was determined, as previously reported. Each experiment was replicated three times, and the data were expressed as mean ± SEM.

[8] = target: hCA XII (Homo sapiens, UniProt O43570); test: stopped-flow CO2 hydrase assay, hCA XII; assay type: biochemical; details: mean from three assays, errors ±5–10%
Sequence of hCA XII (O43570 25-354): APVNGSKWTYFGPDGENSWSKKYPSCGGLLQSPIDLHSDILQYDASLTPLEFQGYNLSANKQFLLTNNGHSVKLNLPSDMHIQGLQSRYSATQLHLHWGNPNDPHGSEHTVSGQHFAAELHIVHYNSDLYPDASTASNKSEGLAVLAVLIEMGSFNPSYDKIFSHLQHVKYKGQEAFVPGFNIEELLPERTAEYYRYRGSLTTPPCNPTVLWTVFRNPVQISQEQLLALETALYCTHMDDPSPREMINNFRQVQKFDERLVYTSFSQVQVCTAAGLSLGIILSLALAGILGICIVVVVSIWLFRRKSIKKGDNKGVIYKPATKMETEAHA
Description: as §1

[9] = test system: H2O2-stimulated human Achilles tendon-derived tenocytes; test: cell cycle analysis by flow cytometry (propidium iodide); assay type: cell-based; details: 48 h, after H2O2 100 µM for 3 h
Description: as §2
The progression of the cell cycle was assessed by flow cytometry, as already reported. Briefly, after the pre-incubation with H2O2 (100 µM for 3 h) and the exposure time (48 h), approximately 0.5 × 10^5 cells/experimental condition were fixed with cold ethanol 70% v/v and afterwards stained with 1 mg/mL propidium iodide (PI) (final concentration 10 µg/mL) and 10 mg/mL RNAse (final concentration 100 µg/mL) and kept overnight at 4 °C in the dark. Each experiment was performed two times in triplicates per experimental condition (n = 6). Cell cycle profiles (1 × 10^4 events/sample) were finally analysed with a CytoFLEX flow cytometer (Beckman Coulter, Indianapolis, IN, USA), and data were quantified using the ModFit LT™ 4.0 software (De Novo Software, Glendale, CA, USA).

Row | Molecule | collagen type I secretion [3] | cell metabolic activity (MTT) ([5]; 48 h exposure) | MbCO formed [7] [µM] | cell metabolic activity (MTT) ([6]; 24 h exposure) | cell metabolic activity (MTT) ([6]; 48 h exposure) | also measured
1 | C#CCNc1ccc(S(N)(=O)=O)cc1.[C-]#[O+].[C-]#[O+].[C-]#[O+].[C-]#[O+].[C-]#[O+].[C-]#[O+].[Co].[Co] [1a, 4-(prop-2-ynylamino)benzenesulfonamide hexacarbonyldicobalt] | dramatically increases its secretion almost three times | well increases cell metabolic activity at the lower concentrations | 9.05 | – | – | Ki [1]: 0.215 µM; Ki [2]: 0.901 µM; KI hCA IX [4]: ineffective; cell metabolic activity (MTT) ([5]; 24 h exposure): significantly increase cell metabolic activity; cytotoxicity (MTT) ([6]; 24 h exposure): cytotoxic at the highest concentrations used; cytotoxicity (MTT) ([6]; 48 h exposure): reveal cytotoxicity at the highest concentrations; CO-release profile (MbCO formed over time) [7]: the fastest and most efficient releaser among the series; CO units released ([7]; 1:6 CORM:Mb ratio (3.33 μM CORM)): 1.6 CO units
2 | CC#CCN(CC#CC)c1ccc(S(N)(=O)=O)cc1.[C-]#[O+].[C-]#[O+].[C-]#[O+].[C-]#[O+].[C-]#[O+].[C-]#[O+].[Co].[Co] [2c, 4-(Di(but-2-yn-1-yl)amino)benzenesulfonamide hexacarbonyldicobalt] | – | constantly effective on cell metabolic activity over the concentrations | – | best test compounds able to increase cell metabolic activity | the best compound in terms of cell metabolic activity increase | cell metabolic activity (MTT) ([5]; 24 h exposure): significantly increase cell metabolic activity
3 | CCC#CCNc1ccc(S(N)(=O)=O)cc1.[C-]#[O+].[C-]#[O+].[C-]#[O+].[C-]#[O+].[C-]#[O+].[C-]#[O+].[Co].[Co] [3a, 4-(pent-2-yn-1-ylamino)benzenesulfonamide hexacarbonyldicobalt] | – | – | – | – | – | cytotoxicity (MTT) ([5]; 24 h exposure): reveal cytotoxicity; cytotoxicity (MTT) ([6]; 24 h exposure): cytotoxic at the highest concentrations used; CO-release profile (MbCO formed over time) [7]: superimposable profile of MbCO formed over time
4 | CCC#CCOc1ccc(S(N)(=O)=O)cc1.[C-]#[O+].[C-]#[O+].[C-]#[O+].[C-]#[O+].[C-]#[O+].[C-]#[O+].[Co].[Co] [3b, 4-(Pent-2-yn-1-yloxy)benzenesulfonamide hexacarbonyldicobalt] | – | – | – | – | – | cytotoxicity (MTT) ([5]; 48 h exposure): cytotoxic, already at the lowest concentration
5 | 4-(Diprop-2′-ynylamino)benzenesulfonamide hexacarbonyldicobalt [1c] | weakly but significantly increases collagen type 1 secretion | constantly effective on cell metabolic activity over the concentrations | 3.66 | – | – | Ki [8]: 0.0075 µM; Ki [4]: 0.0062 µM; CO units released ([7]; 1:12 CORM:Mb ratio (1.67 μM CORM)): 2.3 CO units; cell cycle progression (H2O2-induced G2 increase) [9]: weakly but significantly counteract the H2O2-induced G2 increase
6 | C#CCNc1ccc(S(N)(=O)=O)cc1 [A, 4-(prop-2-ynylamino)benzenesulfonamide, reference compound] | do not enhance the secretion | still ineffective | – | – | – | cell cycle progression (H2O2-induced G2 increase) [9]: ineffective
7 | C#CCOc1ccc(S(N)(=O)=O)cc1 [B, 4-(prop-2′-ynyloxy)benzenesulfonamide, reference compound] | – | still ineffective | – | – | – | –
8 | CC#CCNc1ccc(S(N)(=O)=O)cc1.[C-]#[O+].[C-]#[O+].[C-]#[O+].[C-]#[O+].[C-]#[O+].[C-]#[O+].[Co].[Co] [2a, 4-(but-2-yn-1-ylamino)benzenesulfonamide hexacarbonyldicobalt] | – | increases tenocyte metabolic activity to a lesser extent than 1a | – | best test compounds able to increase cell metabolic activity | – | cell metabolic activity (MTT) ([5]; 24 h exposure): significantly increase cell metabolic activity; cytotoxicity (MTT) ([5]; 48 h exposure): biocompatible; CO-release profile (MbCO formed over time) [7]: superimposable profile of MbCO formed over time
9 | CCC#CCN(CC#CCC)c1ccc(S(N)(=O)=O)cc1.[C-]#[O+].[C-]#[O+].[C-]#[O+].[C-]#[O+].[C-]#[O+].[C-]#[O+].[Co].[Co] [3c, 4-(Di(pent-2-yn-1-yl)amino)benzenesulfonamide hexacarbonyldicobalt] | – | – | – | – | – | cytotoxicity (MTT) ([5]; 48 h exposure): cytotoxic, already at the lowest concentration
10 | C#CCN(CC#C)c1ccccc1.[C-]#[O+].[C-]#[O+].[C-]#[O+].[C-]#[O+].[C-]#[O+].[C-]#[O+].[Co].[Co] [CO-C, N,N-di(prop-2-yn-1-yl)aniline hexacarbonyldicobalt, reference compound] | – | extremely active in terms of cell metabolic activity increase | 3.72 | capable of increasing cell metabolic activity | increase cell metabolic activity only at 50 µM | –
11 | C#CCOc1ccccc1.[C-]#[O+].[C-]#[O+].[C-]#[O+].[C-]#[O+].[C-]#[O+].[C-]#[O+].[Co].[Co] [CO-B, (Prop-2-yn-1-yloxy)benzene hexacarbonyldicobalt, reference compound] | – | extremely active in terms of cell metabolic activity increase | 4 | capable of increasing cell metabolic activity | can increase cell metabolic activity over the concentration range | –
12 | CC(=O)Nc1nnc(S(N)(=O)=O)s1 [AAZ, acetazolamide, reference compound] | do not enhance the secretion | still ineffective | – | – | – | cytotoxicity (MTT) ([6]; 24 h exposure): cytotoxicity at the highest dose; cytotoxicity (MTT) ([6]; 48 h exposure): cytotoxic at the highest concentration; cell cycle progression (H2O2-induced G2 increase) [9]: ineffective
13 | C#CCNc1ccccc1.[C-]#[O+].[C-]#[O+].[C-]#[O+].[C-]#[O+].[C-]#[O+].[C-]#[O+].[Co].[Co] [CO-A, N-(prop-2-yn-1-yl)aniline hexacarbonyldicobalt, reference compound] | – | extremely active in terms of cell metabolic activity increase | 8.1 | capable of increasing cell metabolic activity | increase cell metabolic activity only at 50 µM | –
